pIC50: −log10 of the molar value.
Columns and labels:
[1] = Detection of glutathione conjugates; type: in vitro ADME, human; set-up: key: NF = in vitro no significant adduct formation relative to control; details: in vitro, relative to control
Text: The assay conditions for the detection of glutathione conjugates follow the procedure described by C. M. Dieckhaus et al.^13

[2] = molecular target: T1, BACE1 (Homo sapiens, UniProt P56817); assay: Cellular Aβ-lowering assay (Aβ40 ELISA, HEK293 cells expressing human APP695); type: cell-based; details: HEK293 cells stably expressing human APP695; Aβ40 in supernatant after 18-20 hrs; read-out: BACE1 cell act. Aβ40 IC50
T1 construct: Human HEK293 cells which are stably transfected with a vector expressing a cDNA of the human APP wt gene (APP695); endogenous in cells; host or cells: HEK293 stably expressing human APP695 wt
T1 sequence (P56817 46-501): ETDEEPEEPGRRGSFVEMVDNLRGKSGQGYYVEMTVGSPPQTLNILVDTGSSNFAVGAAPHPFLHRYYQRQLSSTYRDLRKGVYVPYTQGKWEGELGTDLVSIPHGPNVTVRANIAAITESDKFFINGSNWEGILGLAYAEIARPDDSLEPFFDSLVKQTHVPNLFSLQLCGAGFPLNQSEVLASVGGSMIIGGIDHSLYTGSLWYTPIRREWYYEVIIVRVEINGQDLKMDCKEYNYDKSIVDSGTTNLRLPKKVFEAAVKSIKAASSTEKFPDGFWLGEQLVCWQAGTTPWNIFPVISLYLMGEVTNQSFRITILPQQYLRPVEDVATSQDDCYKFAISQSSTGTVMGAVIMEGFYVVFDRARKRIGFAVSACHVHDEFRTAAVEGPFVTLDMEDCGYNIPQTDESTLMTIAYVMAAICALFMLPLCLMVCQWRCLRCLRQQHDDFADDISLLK
Experimental: Human HEK293 cells which are stably transfected with a vector expressing a cDNA of the human APP wt gene (APP695) were used to assess the potency of the compounds in a cellular assay. The cells were seeded in 96-well microtiter plates in cell culture medium (Iscove, plus 10% (v/v) fetal bovine serum, glutamine, penicillin/streptomycin) to about 80% confluence and the compounds were added at a 10× concentration in 1/10 volume of medium without FCS containing 8% DMSO (final concentration of DMSO was kept at 0.8% v/v). After 18-20 hrs incubation at 37° C. and 5% CO2 in a humidified incubator the culture supernatant was harvested for the determination of Aβ40 concentrations. 96 well ELISA plates (e.g., Nunc MaxiSorb) were coated with monoclonal antibody which specifically recognize the C-terminal end of Aβ40^10. After blocking of non-specific binding sites with e.g. 1% BSA and washing, the culture supernatants were added in suitable dilutions together with a horseradish peroxidase-coupled Aβ detection antibody (e.g., antibody 4G8, Senetek, Maryland Heights, Mo.) and incubated for 5 to 7 hrs. Subsequently the wells of the microtiter plate were washed extensively with Tris-buffered saline containing 0.05% Tween 20 and the assay was developed with tetramethylbenzidine/H2O2 in citric acid buffer. After stopping the reaction with one volume 1 N H2SO4 the reaction was measured in an ELISA reader at 450 nm wavelength. The concentrations of Aβ in the culture supernatants were calculated from a standard curve obtained with known amounts of pure Aβ peptide.

[3] = in vivo effect; details: @ 30 mg/kg p.o.
[4] = molecular target: T2, recombinant human cathepsin E (Homo sapiens, UniProt P14091); assay: Cathepsin E fluorescent substrate kinetic assay; type: biochemical; details: pH 4.5
T2 construct: purchased R&D Systems
T2 sequence (P14091 54-396): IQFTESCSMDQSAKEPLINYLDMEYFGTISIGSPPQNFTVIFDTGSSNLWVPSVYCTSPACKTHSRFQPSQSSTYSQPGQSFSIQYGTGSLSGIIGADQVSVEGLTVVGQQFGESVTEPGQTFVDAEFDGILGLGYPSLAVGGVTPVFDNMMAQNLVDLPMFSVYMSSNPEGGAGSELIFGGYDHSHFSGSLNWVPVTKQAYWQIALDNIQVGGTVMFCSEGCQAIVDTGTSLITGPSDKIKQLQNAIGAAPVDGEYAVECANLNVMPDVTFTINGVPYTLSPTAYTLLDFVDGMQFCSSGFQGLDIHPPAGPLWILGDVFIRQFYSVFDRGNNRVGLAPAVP
Text: The MR121 fluorescence assays described below are based on the fact that MR121 forms a non-fluorescent ground state complex with tryptophan. In solution this formation occurs at millimolar concentrations of tryptophan. The mechanism can be used to design a generic biochemical assay for proteases. A substrate peptide is labeled at the N-terminus with tryptophan and at the C-terminus with the fluorophore MR121 (for cathepsin D the 10 amino acid peptide WTSVLMAAPC-MR121 was used; for cathepsin E, MR121-CKLVFFAEDW was used). In absence of protease activity, the substrates remain intact and the MR121 fluorescence is reduced by the high local Trp-concentration. If the substrates are cleaved by the enzymes the MR121 fluorescence is recovered.
The fluorescent substrate cathepsin D and cathepsin E kinetic assays were performed at room temperature in 384-well microtiter plates (black with clear flat bottom, non binding surface plates from Corning) in a final volume of 51 μl. The test compounds were serially diluted in DMSO (15 concentrations, 1/3 dilution steps) and 1 μl of diluted compounds were mixed for 10 min with 40 μl of cathepsin D (from human liver, Calbiochem) diluted in assay buffer (100 mM sodium acetate, 0.05% BSA, pH 5.5; final concentration: 200 nM) or with 40 μl of recombinant human cathepsin E (R&D Systems) diluted in assay buffer (100 mM sodium acetate, 0.05% BSA, pH 4.5; final concentration: 0.01 nM). After addition of 10 μl of the cathepsin D substrate WTSVLMAAPC-MR121 diluted in cathepsin D assay buffer (final concentration: 300 nM) or […] cathepsin E substrate MR121-CKLVFFAEDW diluted in cathepsin E assay buffer (final concentration: 300 nM), the plates were strongly shaken for 2 minutes. The enzymatic reaction was followed in a plate: vision reader (Perkin Elmer) (excitation wavelength: 630 nm; emission: 695 nm) for at least 30 minutes in a kinetic measurement detecting an increase of MR121 fluorescence during the reaction time. The slope in the linear range of the kinetic was calculated and the IC50 of the test compounds were determined using a four parameter equation for curve fitting.

GSH human (glutathione adduct formation) [1] | pIC50 [2] | pIC50 [4] | Compound | in vivo effect (% of control) [3]
NF | 8.66 | < 3.70 | C[C@]1(c2cc(NC(=O)c3ccc(C#N)cn3)ccc2F)N=C(N)O[C@@H]2CCCC(F)(F)[C@@H]21 [Example 8, 5-Cyano-pyridine-2-carboxylic acid [3-((4S,4aR,8aR)-2-amino-5,5-difluoro-4-methyl-4a,5,6,7,8,8a-hexahydro-4H-benzo[e][1,3]oxazin-4-yl)-4-fluoro-phenyl]-amide] | A (A = less than 50% of control @ 30 mg/kg p.o.)
 | 9.40 | 4.01 | CC#CCOc1cnc(C(=O)Nc2ccc(F)c([C@@]3(C)N=C(N)O[C@@H]4CCC(F)(F)[C@@H]43)c2)cn1 [Example 1, 5-But-2-ynyloxy-pyrazine-2-carboxylic acid [3-((4S,4aR,7aR)-2-amino-5,5-difluoro-4-methyl-4,4a,5,6,7,7a-hexahydro-cyclopenta[e][1,3]oxazin-4-yl)-4-fluoro-phenyl]-amide] | A (A = less than 50% of control @ 30 mg/kg p.o.)
NF | 8.82 | 4.05 | C[C@]1(c2cc(NC(=O)c3ccc(C#N)cn3)ccc2F)N=C(N)O[C@@H]2CCC(F)(F)[C@@H]21 [Example 2, 5-Cyano-pyridine-2-carboxylic acid [3-((4S,4aR,7aR)-2-amino-5,5-difluoro-4-methyl-4,4a,5,6,7,7a-hexahydro-cyclopenta[e][1,3]oxazin-4-yl)-4-fluoro-phenyl]-amide] | A (A = less than 50% of control @ 30 mg/kg p.o.)

From patent US9181232B2, “Difluoro-hexahydro-cyclopentaoxazinyls and difluoro-hexahydro-benzooxazinyls as BACE1 inhibitors” (Hoffmann-La Roche Inc., priority 2012, dated 2015)
